Test results as given in the kinase profiling compilation of Christmann-Franck et al. (2016).
Values belong to the compound of their own block, whether it stands above or below them.

Experiments:
KIT (human) = KIT (human) (UniProt P10721); assay: Caliper, Mobility shift assay off-chip
EPHA6 (human) = EPHA6 (human) (UniProt Q9UF33); assay: Caliper, Mobility shift assay off-chip
CDC7 (human) = CDC7 (human) (UniProt O00311); assay: Caliper, Mobility shift assay off-chip
JAK2 JH1 JH2 (human) = JAK2 JH1 JH2 (human) (UniProt O60674); assay: Caliper, Mobility shift assay off-chip
JAK3 JH1 JH2 (human) = JAK3 JH1 JH2 (human) (UniProt P52333); assay: Caliper, Mobility shift assay off-chip
PIM2 (human) = PIM2 (human) (UniProt Q9P1W9); assay: Caliper, Mobility shift assay off-chip
RPS6KB2 (human) = RPS6KB2 (human) (UniProt Q9UBS0); assay: Caliper, Mobility shift assay off-chip
CAMK1 (human) = CAMK1 (human) (UniProt Q14012); assay: Caliper, Mobility shift assay off-chip
CAMK2D (human) = CAMK2D (human) (UniProt Q13557); assay: Caliper, Mobility shift assay off-chip
MAP3K5 (human) = MAP3K5 (human) (UniProt Q99683); assay: ELISA
MAP3K10 (human) = MAP3K10 (human) (UniProt Q02779); assay: ELISA
MAP3K12 (human) = MAP3K12 (human) (UniProt Q12852); assay: ELISA
STK11 (human) = STK11 (human) (UniProt Q15831); assay: ELISA
MAP2K3 (human) = MAP2K3 (human) (UniProt P46734); assay: ELISA
MAP3K2 (human) = MAP3K2 (human) (UniProt Q9Y2U5); assay: ELISA
MAP3K9 (human) = MAP3K9 (human) (UniProt P80192); assay: ELISA
MAP3K1 (human) = MAP3K1 (human) (UniProt Q13233); assay: ELISA
MAP3K4 (human) = MAP3K4 (human) (UniProt Q9Y6R4); assay: ELISA
RAF1 (human) = RAF1 (human) (UniProt P04049); assay: ELISA
MAP2K5 (human) = MAP2K5 (human) (UniProt Q13163); assay: ELISA
MOS (human) = MOS (human) (UniProt P00540); assay: ELISA
BMPR1A (human) = BMPR1A (human) (UniProt P36894); assay: ELISA
MAP2K1 (human) = MAP2K1 (human) (UniProt Q02750); assay: ELISA
MAP2K4 (human) = MAP2K4 (human) (UniProt P45985); assay: ELISA
MAP2K7 (human) = MAP2K7 (human) (UniProt O14733); assay: ELISA
MAP3K11 (human) = MAP3K11 (human) (UniProt Q16584); assay: ELISA
MAP2K2 (human) = MAP2K2 (human) (UniProt P36507); assay: ELISA
MAP3K8 (human) = MAP3K8 (human) (UniProt P41279); assay: ELISA
LIMK1 (human) = LIMK1 (human) (UniProt P53667); assay: ELISA
MAP3K3 (human) = MAP3K3 (human) (UniProt Q99759); assay: ELISA
BRAF (human) = BRAF (human) (UniProt P15056); assay: ELISA
WEE1 (human) = WEE1 (human) (UniProt P30291); assay: ELISA
MAP2K6 (human) = MAP2K6 (human) (UniProt P52564); assay: ELISA
TTK (human) = TTK (human) (UniProt P33981); assay: ELISA
PLK4 (human) = PLK4 (human) (UniProt O00444); assay: ELISA

STK11 (human), sequence (Q15831 whole entry, looked up): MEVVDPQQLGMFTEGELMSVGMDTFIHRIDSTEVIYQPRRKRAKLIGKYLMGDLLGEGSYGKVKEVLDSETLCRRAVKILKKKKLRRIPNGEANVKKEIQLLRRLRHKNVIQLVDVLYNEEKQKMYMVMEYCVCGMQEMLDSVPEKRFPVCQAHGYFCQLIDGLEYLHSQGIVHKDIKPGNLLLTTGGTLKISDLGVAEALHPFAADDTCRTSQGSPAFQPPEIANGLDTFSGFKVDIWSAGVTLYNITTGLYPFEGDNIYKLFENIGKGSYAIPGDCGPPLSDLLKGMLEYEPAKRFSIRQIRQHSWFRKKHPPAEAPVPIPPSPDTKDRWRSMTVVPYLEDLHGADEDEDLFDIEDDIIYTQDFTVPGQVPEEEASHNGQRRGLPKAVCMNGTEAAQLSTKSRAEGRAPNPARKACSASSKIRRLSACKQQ
RPS6KB2 (human), sequence (Q9UBS0 whole entry, looked up): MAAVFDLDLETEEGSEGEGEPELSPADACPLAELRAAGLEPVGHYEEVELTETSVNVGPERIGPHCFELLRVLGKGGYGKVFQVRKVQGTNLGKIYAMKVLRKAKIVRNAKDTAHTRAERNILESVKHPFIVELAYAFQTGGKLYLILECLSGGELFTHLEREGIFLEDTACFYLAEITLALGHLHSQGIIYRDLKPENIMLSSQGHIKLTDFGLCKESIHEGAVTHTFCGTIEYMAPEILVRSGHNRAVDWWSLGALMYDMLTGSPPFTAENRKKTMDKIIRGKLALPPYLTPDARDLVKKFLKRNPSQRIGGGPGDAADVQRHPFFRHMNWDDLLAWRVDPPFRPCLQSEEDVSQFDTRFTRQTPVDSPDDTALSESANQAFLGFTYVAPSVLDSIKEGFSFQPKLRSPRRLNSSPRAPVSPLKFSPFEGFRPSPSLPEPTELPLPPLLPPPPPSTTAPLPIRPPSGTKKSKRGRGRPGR
MAP3K12 (human), sequence (Q12852 whole entry, looked up): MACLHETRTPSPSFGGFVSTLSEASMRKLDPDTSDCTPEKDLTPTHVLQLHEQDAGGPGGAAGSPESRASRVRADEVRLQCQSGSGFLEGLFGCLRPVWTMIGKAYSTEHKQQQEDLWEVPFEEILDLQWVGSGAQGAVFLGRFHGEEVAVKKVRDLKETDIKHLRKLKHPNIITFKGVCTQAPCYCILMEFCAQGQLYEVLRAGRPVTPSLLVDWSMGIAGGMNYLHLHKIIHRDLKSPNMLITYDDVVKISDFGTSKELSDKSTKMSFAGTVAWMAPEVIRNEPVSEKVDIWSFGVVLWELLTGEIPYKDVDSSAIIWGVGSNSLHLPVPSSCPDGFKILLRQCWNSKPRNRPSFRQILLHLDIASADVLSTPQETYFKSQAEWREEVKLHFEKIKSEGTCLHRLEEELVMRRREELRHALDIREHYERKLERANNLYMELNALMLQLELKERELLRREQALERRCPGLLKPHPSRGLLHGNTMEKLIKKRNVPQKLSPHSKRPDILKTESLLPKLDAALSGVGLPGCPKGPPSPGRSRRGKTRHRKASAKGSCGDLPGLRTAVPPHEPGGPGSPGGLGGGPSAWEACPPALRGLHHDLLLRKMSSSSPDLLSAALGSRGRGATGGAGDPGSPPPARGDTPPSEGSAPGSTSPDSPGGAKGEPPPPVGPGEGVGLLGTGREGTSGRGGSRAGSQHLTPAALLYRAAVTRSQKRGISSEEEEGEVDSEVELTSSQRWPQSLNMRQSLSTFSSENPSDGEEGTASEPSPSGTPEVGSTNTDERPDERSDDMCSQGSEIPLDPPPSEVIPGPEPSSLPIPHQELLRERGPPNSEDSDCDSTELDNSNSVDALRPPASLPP
CDC7 (human), sequence (O00311 whole entry, looked up): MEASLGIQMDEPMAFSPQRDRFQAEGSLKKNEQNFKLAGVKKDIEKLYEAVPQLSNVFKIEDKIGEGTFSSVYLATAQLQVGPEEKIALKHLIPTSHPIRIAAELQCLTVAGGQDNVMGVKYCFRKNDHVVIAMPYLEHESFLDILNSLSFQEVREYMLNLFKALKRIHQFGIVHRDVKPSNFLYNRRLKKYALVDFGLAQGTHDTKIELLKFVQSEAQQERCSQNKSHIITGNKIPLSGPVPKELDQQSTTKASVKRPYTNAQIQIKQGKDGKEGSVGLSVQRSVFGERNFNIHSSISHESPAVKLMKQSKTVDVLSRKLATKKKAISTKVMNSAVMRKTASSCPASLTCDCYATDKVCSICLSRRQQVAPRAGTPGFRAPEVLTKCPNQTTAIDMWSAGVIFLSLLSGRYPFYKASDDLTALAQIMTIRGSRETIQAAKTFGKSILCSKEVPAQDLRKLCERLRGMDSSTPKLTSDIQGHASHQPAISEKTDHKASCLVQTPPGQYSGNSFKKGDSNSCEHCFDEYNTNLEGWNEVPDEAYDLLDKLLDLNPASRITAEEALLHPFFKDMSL
LIMK1 (human), sequence (P53667 whole entry, looked up): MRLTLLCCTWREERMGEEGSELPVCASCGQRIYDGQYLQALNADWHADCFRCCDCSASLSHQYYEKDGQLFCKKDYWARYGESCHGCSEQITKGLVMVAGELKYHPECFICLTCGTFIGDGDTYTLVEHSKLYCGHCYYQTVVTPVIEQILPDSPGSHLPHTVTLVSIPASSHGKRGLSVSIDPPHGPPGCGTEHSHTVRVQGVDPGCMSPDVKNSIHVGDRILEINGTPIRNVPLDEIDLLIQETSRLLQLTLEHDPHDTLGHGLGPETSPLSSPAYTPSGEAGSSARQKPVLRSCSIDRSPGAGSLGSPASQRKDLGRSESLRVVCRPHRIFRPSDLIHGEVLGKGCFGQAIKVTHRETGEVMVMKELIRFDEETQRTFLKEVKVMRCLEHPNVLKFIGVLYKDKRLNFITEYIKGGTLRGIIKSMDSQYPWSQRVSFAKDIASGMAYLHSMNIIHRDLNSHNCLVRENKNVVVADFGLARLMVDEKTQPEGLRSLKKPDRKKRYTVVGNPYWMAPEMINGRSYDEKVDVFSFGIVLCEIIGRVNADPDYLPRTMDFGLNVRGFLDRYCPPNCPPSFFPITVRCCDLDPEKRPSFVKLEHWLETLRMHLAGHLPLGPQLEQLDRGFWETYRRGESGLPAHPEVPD
MAP3K9 (human), sequence (P80192 whole entry, looked up): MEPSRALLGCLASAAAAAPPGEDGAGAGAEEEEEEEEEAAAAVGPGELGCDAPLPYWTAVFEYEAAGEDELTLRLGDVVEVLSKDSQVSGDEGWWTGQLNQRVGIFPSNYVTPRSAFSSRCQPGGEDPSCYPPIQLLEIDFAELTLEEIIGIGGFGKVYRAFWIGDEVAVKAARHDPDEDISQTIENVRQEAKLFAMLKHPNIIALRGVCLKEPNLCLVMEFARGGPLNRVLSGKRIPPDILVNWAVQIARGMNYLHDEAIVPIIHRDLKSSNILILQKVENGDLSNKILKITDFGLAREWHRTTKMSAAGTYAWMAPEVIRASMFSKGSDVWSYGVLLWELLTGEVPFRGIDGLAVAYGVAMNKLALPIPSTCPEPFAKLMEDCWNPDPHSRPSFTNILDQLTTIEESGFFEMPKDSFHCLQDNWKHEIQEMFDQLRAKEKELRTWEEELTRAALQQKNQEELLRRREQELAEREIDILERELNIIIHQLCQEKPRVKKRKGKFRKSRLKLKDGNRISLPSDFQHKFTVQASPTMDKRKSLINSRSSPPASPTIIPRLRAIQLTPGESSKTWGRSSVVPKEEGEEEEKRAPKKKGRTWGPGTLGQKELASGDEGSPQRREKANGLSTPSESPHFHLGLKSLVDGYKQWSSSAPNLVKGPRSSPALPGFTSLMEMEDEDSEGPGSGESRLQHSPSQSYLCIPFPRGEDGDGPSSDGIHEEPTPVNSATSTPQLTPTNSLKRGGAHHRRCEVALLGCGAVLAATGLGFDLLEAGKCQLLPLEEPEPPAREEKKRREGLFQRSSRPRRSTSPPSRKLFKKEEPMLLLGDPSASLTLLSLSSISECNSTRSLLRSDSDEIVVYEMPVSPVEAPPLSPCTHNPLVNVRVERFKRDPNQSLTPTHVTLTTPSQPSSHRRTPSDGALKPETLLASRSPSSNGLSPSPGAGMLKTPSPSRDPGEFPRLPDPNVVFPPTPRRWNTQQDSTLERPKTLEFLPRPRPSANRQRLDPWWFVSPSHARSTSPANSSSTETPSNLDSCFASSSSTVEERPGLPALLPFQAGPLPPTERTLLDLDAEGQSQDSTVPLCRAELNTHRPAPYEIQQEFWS
MOS (human), sequence (P00540 whole entry, looked up): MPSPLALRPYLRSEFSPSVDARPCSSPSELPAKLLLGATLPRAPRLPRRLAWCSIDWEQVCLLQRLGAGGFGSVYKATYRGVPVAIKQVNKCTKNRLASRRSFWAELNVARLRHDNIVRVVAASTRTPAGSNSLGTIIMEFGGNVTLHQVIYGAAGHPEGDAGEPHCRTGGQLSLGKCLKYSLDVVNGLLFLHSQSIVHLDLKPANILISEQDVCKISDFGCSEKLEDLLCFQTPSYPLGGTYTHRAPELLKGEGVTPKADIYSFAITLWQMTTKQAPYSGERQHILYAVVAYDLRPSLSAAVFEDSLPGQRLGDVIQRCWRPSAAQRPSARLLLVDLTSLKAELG
PIM2 (human), sequence (Q9P1W9 whole entry, looked up): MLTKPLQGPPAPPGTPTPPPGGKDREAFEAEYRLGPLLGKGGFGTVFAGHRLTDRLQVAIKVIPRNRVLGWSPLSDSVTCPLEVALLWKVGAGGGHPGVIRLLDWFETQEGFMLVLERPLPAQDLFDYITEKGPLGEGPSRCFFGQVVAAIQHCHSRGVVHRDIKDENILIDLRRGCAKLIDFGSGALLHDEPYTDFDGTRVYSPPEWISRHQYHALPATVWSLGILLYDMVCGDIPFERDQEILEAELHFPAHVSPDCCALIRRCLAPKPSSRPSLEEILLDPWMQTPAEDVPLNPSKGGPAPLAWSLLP

inhibition (KIT (human); compound 0.02 µM): 64.1%
inhibition (KIT (human); compound 0.2 µM): 71.4%
inhibition (EPHA6 (human); compound 0.02 µM): 37.1%
inhibition (EPHA6 (human); compound 0.2 µM): 95.9%
inhibition (CDC7 (human); compound 0.02 µM): -3.4%
inhibition (CDC7 (human); compound 0.2 µM): -0.7%
inhibition (JAK2 JH1 JH2 (human); compound 0.02 µM): 4.5%
inhibition (JAK2 JH1 JH2 (human); compound 0.2 µM): 4.5%
inhibition (JAK3 JH1 JH2 (human); compound 0.02 µM): 5.1%
inhibition (JAK3 JH1 JH2 (human); compound 0.2 µM): 4%
inhibition (PIM2 (human); compound 0.02 µM): 6.1%
inhibition (PIM2 (human); compound 0.2 µM): 8.8%
inhibition (RPS6KB2 (human); compound 0.02 µM): 1%
inhibition (RPS6KB2 (human); compound 0.2 µM): 0.6%
inhibition (CAMK1 (human); compound 0.02 µM): -3.1%
inhibition (CAMK1 (human); compound 0.2 µM): -3.1%
inhibition (CAMK2D (human); compound 0.02 µM): 3.9%
inhibition (CAMK2D (human); compound 0.2 µM): 3.9%
inhibition (MAP3K5 (human); compound 0.02 µM): 8.7%
inhibition (MAP3K5 (human); compound 0.2 µM): 4%
inhibition (MAP3K10 (human); compound 0.02 µM): 3.6%
inhibition (MAP3K10 (human); compound 0.2 µM): 6%
inhibition (MAP3K12 (human); compound 0.02 µM): 8.9%
inhibition (MAP3K12 (human); compound 0.2 µM): 10.3%
inhibition (STK11 (human); compound 0.02 µM): 0.9%
inhibition (STK11 (human); compound 0.2 µM): 19%
inhibition (MAP2K3 (human); compound 0.02 µM): -7.4%
inhibition (MAP2K3 (human); compound 0.2 µM): -2.9%
inhibition (MAP3K2 (human); compound 0.02 µM): 1.9%
inhibition (MAP3K2 (human); compound 0.2 µM): 4.4%
inhibition (MAP3K9 (human); compound 0.02 µM): 4.9%
inhibition (MAP3K9 (human); compound 0.2 µM): 10.5%
inhibition (MAP3K1 (human); compound 0.02 µM): 1.2%
inhibition (MAP3K1 (human); compound 0.2 µM): -1%
inhibition (MAP3K4 (human); compound 0.02 µM): -1.7%
inhibition (MAP3K4 (human); compound 0.2 µM): -6.3%
inhibition (RAF1 (human); compound 0.02 µM): 3.1%
inhibition (RAF1 (human); compound 0.2 µM): -1.7%
inhibition (MAP2K5 (human); compound 0.2 µM): -8.2%
inhibition (MOS (human); compound 0.02 µM): 4.2%
inhibition (MOS (human); compound 0.2 µM): 3.7%
inhibition (BMPR1A (human); compound 0.02 µM): 8.3%
inhibition (BMPR1A (human); compound 0.2 µM): -7.9%
inhibition (MAP2K1 (human); compound 0.02 µM): -0.6%
inhibition (MAP2K1 (human); compound 0.2 µM): -2.4%
inhibition (MAP2K4 (human); compound 0.02 µM): 0.9%
inhibition (MAP2K4 (human); compound 0.2 µM): -5.2%
inhibition (MAP2K7 (human); compound 0.02 µM): -6.9%
inhibition (MAP2K7 (human); compound 0.2 µM): -3.5%
inhibition (MAP3K11 (human); compound 0.02 µM): -1.7%
inhibition (MAP3K11 (human); compound 0.2 µM): -0.3%
inhibition (MAP2K2 (human); compound 0.02 µM): -4.9%
inhibition (MAP2K2 (human); compound 0.2 µM): -23%
inhibition (MAP3K8 (human); compound 0.02 µM): -3.2%
inhibition (MAP3K8 (human); compound 0.2 µM): -1%
inhibition (LIMK1 (human); compound 0.02 µM): -7.3%
inhibition (LIMK1 (human); compound 0.2 µM): -7.8%
inhibition (MAP3K3 (human); compound 0.02 µM): 1.2%
inhibition (MAP3K3 (human); compound 0.2 µM): 2.9%
inhibition (BRAF (human); compound 0.2 µM): 2%
inhibition (WEE1 (human); compound 0.02 µM): -5.4%
inhibition (WEE1 (human); compound 0.2 µM): 0.5%
inhibition (MAP2K6 (human); compound 0.02 µM): 2.8%
inhibition (MAP2K6 (human); compound 0.2 µM): -5%
inhibition (TTK (human); compound 0.02 µM): -4%
inhibition (TTK (human); compound 0.2 µM): -2%
inhibition (PLK4 (human); compound 0.02 µM): 7.6%
inhibition (PLK4 (human); compound 0.2 µM): 8.4%
SMILES: COc1cc2c(Oc3ccc4[nH]c(C)cc4c3F)ncnc2cc1OCCCN1CCCC1

inhibition (KIT (human); compound 0.001 µM): 37.8%
inhibition (KIT (human); compound 0.02 µM): 70.5%
inhibition (EPHA6 (human); compound 0.02 µM): 0.3%
inhibition (CDC7 (human); compound 0.001 µM): -4.9%
inhibition (CDC7 (human); compound 0.02 µM): -5.8%
inhibition (JAK2 JH1 JH2 (human); compound 0.001 µM): 2.5%
inhibition (JAK2 JH1 JH2 (human); compound 0.02 µM): 4.7%
inhibition (JAK3 JH1 JH2 (human); compound 0.001 µM): 4.6%
inhibition (PIM2 (human); compound 0.001 µM): 4.4%
inhibition (PIM2 (human); compound 0.02 µM): 2.5%
inhibition (RPS6KB2 (human); compound 0.001 µM): 9.2%
inhibition (RPS6KB2 (human); compound 0.02 µM): 1.8%
inhibition (CAMK1 (human); compound 0.001 µM): -3.4%
inhibition (CAMK1 (human); compound 0.02 µM): -4.5%
inhibition (CAMK2D (human); compound 0.001 µM): 3%
inhibition (CAMK2D (human); compound 0.02 µM): 2.4%
inhibition (MAP3K5 (human); compound 0.001 µM): -2%
inhibition (MAP3K5 (human); compound 0.02 µM): -2.8%
inhibition (MAP3K10 (human); compound 0.001 µM): 4.4%
inhibition (MAP3K10 (human); compound 0.02 µM): 2.7%
inhibition (MAP3K12 (human); compound 0.001 µM): 6.6%
inhibition (MAP3K12 (human); compound 0.02 µM): 4.3%
inhibition (STK11 (human); compound 0.001 µM): 1.9%
inhibition (STK11 (human); compound 0.02 µM): 0.2%
inhibition (MAP2K3 (human); compound 0.001 µM): -2.7%
inhibition (MAP2K3 (human); compound 0.02 µM): -2.2%
inhibition (MAP3K2 (human); compound 0.001 µM): -0.4%
inhibition (MAP3K2 (human); compound 0.02 µM): 1.9%
inhibition (MAP3K9 (human); compound 0.001 µM): 1.1%
inhibition (MAP3K9 (human); compound 0.02 µM): 0.1%
inhibition (MAP3K1 (human); compound 0.001 µM): -3.7%
inhibition (MAP3K1 (human); compound 0.02 µM): -3.5%
inhibition (MAP3K4 (human); compound 0.001 µM): -7.9%
inhibition (MAP3K4 (human); compound 0.02 µM): -1.7%
inhibition (RAF1 (human); compound 0.001 µM): 0.9%
inhibition (RAF1 (human); compound 0.02 µM): -3%
inhibition (MAP2K5 (human); compound 0.001 µM): -15.6%
inhibition (MAP2K5 (human); compound 0.02 µM): -11.8%
inhibition (MOS (human); compound 0.001 µM): -7.5%
inhibition (MOS (human); compound 0.02 µM): -15.4%
inhibition (BMPR1A (human); compound 0.001 µM): -0.4%
inhibition (BMPR1A (human); compound 0.02 µM): 1.1%
inhibition (MAP2K1 (human); compound 0.001 µM): 4.3%
inhibition (MAP2K1 (human); compound 0.02 µM): -1.3%
inhibition (MAP2K4 (human); compound 0.001 µM): -0.4%
inhibition (MAP2K4 (human); compound 0.02 µM): -5.7%
inhibition (MAP2K7 (human); compound 0.001 µM): -1.2%
inhibition (MAP2K7 (human); compound 0.02 µM): -3.4%
inhibition (MAP3K11 (human); compound 0.001 µM): -5.9%
inhibition (MAP3K11 (human); compound 0.02 µM): -7.1%
inhibition (MAP2K2 (human); compound 0.001 µM): -7.9%
inhibition (MAP2K2 (human); compound 0.02 µM): 0.1%
inhibition (MAP3K8 (human); compound 0.001 µM): -5.7%
inhibition (MAP3K8 (human); compound 0.02 µM): -0.7%
inhibition (LIMK1 (human); compound 0.001 µM): 1.5%
inhibition (LIMK1 (human); compound 0.02 µM): -2.6%
inhibition (MAP3K3 (human); compound 0.001 µM): 6.6%
inhibition (MAP3K3 (human); compound 0.02 µM): 0.5%
inhibition (BRAF (human); compound 0.001 µM): -1.8%
inhibition (BRAF (human); compound 0.02 µM): -4.5%
inhibition (WEE1 (human); compound 0.001 µM): -2.1%
inhibition (WEE1 (human); compound 0.02 µM): 1.5%
inhibition (MAP2K6 (human); compound 0.001 µM): 3.2%
inhibition (MAP2K6 (human); compound 0.02 µM): 2.3%
inhibition (TTK (human); compound 0.001 µM): -2.7%
inhibition (TTK (human); compound 0.02 µM): -3.2%
inhibition (PLK4 (human); compound 0.001 µM): 23.3%
inhibition (PLK4 (human); compound 0.02 µM): 48.9%
SMILES: CNC(=O)c1ccccc1Sc1ccc2c(/C=C/c3ccccn3)n[nH]c2c1
